Patent US10856562B2, “Flavor composition and edible compositions containing same” (MARS, INCORPORATED, priority 2013, dated 2020)
Entries after “also recorded” stand apart in the source; their conditions may differ. Square brackets hold non-standard residues; d marks the D form. Ends that are not written are not given here. pGlu = O=C1CC[C@@H](C(=O)O)N1

Columns and labels:
[1] = tested on: panelists; assay: Descriptive profile of umami enhancer UE-30 in solution, in-mouth (Example 5); type: in vivo, human; conditions: for Astringent, in-mouth perception / Bitter, in-mouth perception / Metallic, in-mouth perception / Mineral/Flinty, in-mouth perception / Numbing, in-mouth perception / Salt, in-mouth perception / Sour, in-mouth perception / Sweet, in-mouth perception / Umami FF, in-mouth perception / Umami/Brothy, in-mouth perception: mean score, 15-point scale
Experimental: Descriptive attributes (e.g., taste, flavor and chemical feeling factors) of four use levels of a pGlu-Val-Cys (UE-30) flavor composition peptide was determined. The four use levels were as follows: 1.0 ppb, 10.0 ppb, 100.0 ppb and 1000.0 ppb.
Data was collected for the attributes of the product in-mouth for the use levels according to the following protocol: • The samples were analyzed for flavor and aftertaste by six-nine members of a panel, trained and experienced in appearance, flavor and texture evaluation using the Spectrum™ method. Samples were evaluated across multiple panel sessions. • The strength of each attribute was rated on a 15-point scale, where 0=none and 15=very strong. • This scale incorporates the ability to use tenths of a point and therefore has the potential of 150 scale differentiations. • The scale may be expanded beyond 15 points to include extreme ratings if necessary. Attribute Perception Protocol • The panelists evaluated each sample using the following procedure • Descriptive Profiles (Flavor and Chemical Feeling Factors) of 4 levels of UE-30 (umami enhancer) • Individual data (1 replication) was collected for the flavor and chemical feeling factors of the product in-mouth Sample Preparation
The 01, 10, 100 and 1000 ppb test samples of the flavor composition peptide was prepared in water as described in the table 19.
The panelists evaluated each sample for the attributes described in table 20.

[2] = Salty taste of NaCl-reduced potato chips with added peptide; type: in vivo; conditions: 50% salt reduction, 1150 ppb peptide
Experimental: All Ingredients were added into a plastic container and mixed gently.
Two batches of potato chips were made: a control with 100% NaCl (0.5 g) and a sample with 50% NaCl (0.25 g) and 1150 ppb pGlu-Val-Leu.
A 1000 ppm stock of pGlu-Val-Leu in salt was made to be added to the potato chips.

[3] = Salty taste of peanut butter with added peptide; type: in vivo; conditions: no salt reduction, 267 ppb peptide
Experimental: All Ingredients were added into the mixing bowl and milled on the Retsch mill (model RM200) for a total of 30 minutes for two 15 minute intervals. After 15 minutes, the walls of the bowl were scraped with a spatula and then, milling was resumed.
Three batches of peanut butter were made: a control with 100% NaCl (0.05 g), a sample with 100% NaCl (0.05 g) and 267 ppb pGlu-Val-Leu, and a sample with 50% NaCl reduction (0.025 g) and with 267 ppb pGlu-Val-Leu.
A 1000 ppm stock of pGlu-Val-Leu in salt was made to be added to the peanut butter.

[4] = Salty taste of NaCl-reduced roasted chicken flavored rice with added peptide; type: in vivo; conditions: 50% NaCl reduction, 50 ppb peptide
Experimental: All Ingredients, except the rice, were placed into a container and mixed. The mixture was heated in a microwave for a total of one minute for two 30 second intervals. The rice and mixture were then mixed in a bowl. The cooking bowl was placed into a rice cooker and the cook cycle was started. After 36 minutes the rice was mixed and then allowed to cook for the remaining time for a total time of 49 minutes.
Three batches of rice were made: a control with 100% NaCl (4.7696 g), a sample with 50% NaCl (2.38 g), and the last sample had 50% NaCl (2.38 g) with 50 ppb of pGlu-Val-Leu.
Three batches of rice were made: a control with 100% NaCl, a sample with 50% NaCl, and a sample that had 50% NaCl (2.38 g) with 50 ppb of pGlu-Val-Val.
Two batches of rice were made: a control with 50% NaCl (2.38 g), and the other sample had 50% NaCl (2.38 g) with 50 ppb of pGlu-Val and 50 ppb of pGlu-Pro-Glu. Two stock solutions were made to be added to the rice: a 200 ppm stock solution of pGlu-Val in water and a 200 ppm stock solution of pGlu-Pro-Glu in water, as shown in table 44.
Three batches of rice were made: a control with 100% NaCl (4.7696 g), a sample with 40% NaCl (1.9 g), and the last sample had 40% NaCl (1.9 g) with 1 ppb of pGlu-Val-Leu and 1 ppb of pGlu-Val-Cys. […]

Substance: [pGlu]-Val-Cys [UE-30]
- Astringent, in-mouth perception ([1]; 1.0 ppb in solution): 0.0
- Bitter, in-mouth perception ([1]; 1.0 ppb in solution): 0.0
- Metallic, in-mouth perception ([1]; 1.0 ppb in solution): 0.0
- Mineral/Flinty, in-mouth perception ([1]; 1.0 ppb in solution): 0.5
- Numbing, in-mouth perception ([1]; 1.0 ppb in solution): 0.0
- Salt, in-mouth perception ([1]; 1.0 ppb in solution): 1.9
- Sour, in-mouth perception ([1]; 1.0 ppb in solution): 0.0
- Sweet, in-mouth perception ([1]; 1.0 ppb in solution): 0.0
- Umami FF, in-mouth perception ([1]; 1.0 ppb in solution): 0.5
- Umami/Brothy, in-mouth perception ([1]; 1.0 ppb in solution): 0.7
- Level of the remaining aromatics, basic tastes and chemical feeling factors with increasing concentration ([1]; 1.0 to 1000.0 ppb, in-mouth): does not increase
- Salt perception level as the concentration increases ([1]; 1.0 to 1000.0 ppb, in-mouth): increases slightly; also recorded: Shows increases
- Umami feeling factor as the concentration increases ([1]; 1.0 to 1000.0 ppb, in-mouth): increases slightly; also recorded: Shows increases
- Umami/brothy aromatic as the concentration increases ([1]; 1.0 to 1000.0 ppb, in-mouth): increases slightly; also recorded: Shows increases
- Astringent, in-mouth perception ([1]; 10.0 ppb in solution): 0.0
- Bitter, in-mouth perception ([1]; 10.0 ppb in solution): 0.0
- Metallic, in-mouth perception ([1]; 10.0 ppb in solution): 0.0
- Mineral/Flinty, in-mouth perception ([1]; 10.0 ppb in solution): 0.7
- Numbing, in-mouth perception ([1]; 10.0 ppb in solution): 0.0
- Salt, in-mouth perception ([1]; 10.0 ppb in solution): 2.1
- Sour, in-mouth perception ([1]; 10.0 ppb in solution): 0.0
- Sweet, in-mouth perception ([1]; 10.0 ppb in solution): 0.0
- Umami FF, in-mouth perception ([1]; 10.0 ppb in solution): 1.9
- Umami/Brothy, in-mouth perception ([1]; 10.0 ppb in solution): 1.0
- Astringent, in-mouth perception ([1]; 100.0 ppb in solution): 0.0
- Bitter, in-mouth perception ([1]; 100.0 ppb in solution): 0.0
- Metallic, in-mouth perception ([1]; 100.0 ppb in solution): 0.0
- Mineral/Flinty, in-mouth perception ([1]; 100.0 ppb in solution): 0.7
- Numbing, in-mouth perception ([1]; 100.0 ppb in solution): 0.0
- Salt, in-mouth perception ([1]; 100.0 ppb in solution): 2.6
- Sour, in-mouth perception ([1]; 100.0 ppb in solution): 0.0
- Sweet, in-mouth perception ([1]; 100.0 ppb in solution): 0.0
- Umami FF, in-mouth perception ([1]; 100.0 ppb in solution): 2.7
- Umami/Brothy, in-mouth perception ([1]; 100.0 ppb in solution): 1.8
- Astringent, in-mouth perception ([1]; 1000.0 ppb in solution): 0.0
- Bitter, in-mouth perception ([1]; 1000.0 ppb in solution): 0.0
- Metallic, in-mouth perception ([1]; 1000.0 ppb in solution): 0.0
- Mineral/Flinty, in-mouth perception ([1]; 1000.0 ppb in solution): 0.6
- Numbing, in-mouth perception ([1]; 1000.0 ppb in solution): 0.0
- Salt, in-mouth perception ([1]; 1000.0 ppb in solution): 3.4
- Sour, in-mouth perception ([1]; 1000.0 ppb in solution): 0.0
- Sweet, in-mouth perception ([1]; 1000.0 ppb in solution): 0.0
- Umami FF, in-mouth perception ([1]; 1000.0 ppb in solution): 3.5
- Umami/Brothy, in-mouth perception ([1]; 1000.0 ppb in solution): 2.5

Substance: [pGlu]-Val-Leu [SE-13]
- Salty taste compared to control with 100% NaCl [2]: saltier than the control
- Salty taste compared to control with 100% NaCl [3]: saltier than the control

Substance: [pGlu]-Val-Val [SE-17]
- Aftertaste [4]: had a salty aftertaste
